From patent publication US12466826B2, “3-benzoyl-1H-pyrrolo[2,3-b]pyridine derivatives as MKK4 inhibitors for treating liver diseases” (HepaRegeniX GmbH, priority 2020, dated 2025)

How the values were obtained:
Type in all cases: biochemical
MKK4 = target: T1, MKK4 (Homo sapiens, UniProt P45985); test: 33PanQinase kinase assay, MKK4 potency; details: based on inhibition of enzyme activity at a single concentration or on IC50-values
T1 construct: purchased ProQinase GmbH, Freiburg, Germany (assay service)
T1 sequence (P45985 1-399): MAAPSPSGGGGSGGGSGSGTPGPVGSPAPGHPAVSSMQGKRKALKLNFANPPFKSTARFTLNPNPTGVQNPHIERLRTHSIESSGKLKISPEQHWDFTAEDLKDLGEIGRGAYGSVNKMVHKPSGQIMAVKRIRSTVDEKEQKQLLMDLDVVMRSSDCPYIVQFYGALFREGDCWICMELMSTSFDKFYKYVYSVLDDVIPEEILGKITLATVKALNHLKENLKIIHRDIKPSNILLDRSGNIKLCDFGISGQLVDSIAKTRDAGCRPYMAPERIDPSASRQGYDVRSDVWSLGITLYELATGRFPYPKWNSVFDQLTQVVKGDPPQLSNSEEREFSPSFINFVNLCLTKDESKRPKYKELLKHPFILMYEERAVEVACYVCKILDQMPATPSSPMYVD
Description: (§1) The kinase activities of the compounds of the invention were measured using the 33PanQinase® Assay Service provided by ProQinase GmbH, Freiburg, Germany. Details of the assay conditions are disclosed on the website of ProQinase (https://www.proqinase.com/products-services-biochemical-assay-services/kinase-assays).
(§2) In brief, all kinase assays were performed in 96-well FlashPlates™ from PerkinElmer (Boston, MA, USA) in a 50 μl reaction volume. The reaction cocktail was pipetted in four steps in the following order: • 20 μl of assay buffer (standard buffer) • 5 μl of ATP solution (in H2O) • 5 μl of test compound (in 10% DMSO) • 20 μl enzyme/substrate mix
(§3) The assay for all protein kinases contained 70 mM HEPES-NaOH pH7.5, 3 mM MgCl2, 3 mM MnCl2, 3 μM Na-orthovanadate, 1.2 mM DTT, 50 μg/ml PEG20000, ATP (variable concentrations, corresponding to the apparent ATP-Km of the respective kinase), [γ-^33P]-ATP (approx. […] per well), protein kinase and substrate.
(§4) The reaction cocktails were incubated at 30° C. for 60 minutes. The reaction is stopped with 50 μl of 2% (v/v) H3PO4, plates were aspirated and washed two times with 200 μl 0.9% (w/v) NaCl. Incorporation of ^33Pi was determined with a microplate scintillation counter (Microbeta, Wallac).
(§5) All assays were performed with a BeckmanCoulter/SAGIAN™ Core System.
(§6) In case of single concentration assays, the potency of the test compound is expressed as % residual activity. For determination of IC50-values, serial dilutions in the final concentration range between 100 μM and 3 nM (10 concentrations) were tested. The fitting model for the IC50 determinations was “Sigmoidal response (variable slope)” with parameters “top” fixed at 100% and “bottom” at 0%. The fitting method used was a least-squares fit.

BRaf = target: T2, BRaf (Homo sapiens, UniProt P15056); test: 33PanQinase kinase assay, selectivity against BRaf; details: ratio IC50 (BRaf)/IC50 (MKK4)
T2 construct: purchased ProQinase GmbH, Freiburg, Germany (assay service)
Description: as §1, §2, §3, §4, §5, §6
(§7) Selectivity of test compounds against BRaf, JNK1 and MKK7, altogether denominated as off-targets was calculated by the ratio of IC50 (off-target)/IC50 (MKK4) and categorized as follows: […]

JNK1 = target: T3, JNK1 (Homo sapiens, UniProt P45983); test: 33PanQinase kinase assay, selectivity against JNK1; details: ratio IC50 (JNK1)/IC50 (MKK4)
T3 construct: purchased ProQinase GmbH, Freiburg, Germany (assay service)
Description: as §1, §2, §3, §4, §5, §6, §7

MKK7 = target: T4, MKK7 (Homo sapiens, UniProt O14733); test: 33PanQinase kinase assay, selectivity against MKK7; details: ratio IC50 (MKK7)/IC50 (MKK4)
T4 construct: purchased ProQinase GmbH, Freiburg, Germany (assay service)
T4 sequence (O14733 1-419): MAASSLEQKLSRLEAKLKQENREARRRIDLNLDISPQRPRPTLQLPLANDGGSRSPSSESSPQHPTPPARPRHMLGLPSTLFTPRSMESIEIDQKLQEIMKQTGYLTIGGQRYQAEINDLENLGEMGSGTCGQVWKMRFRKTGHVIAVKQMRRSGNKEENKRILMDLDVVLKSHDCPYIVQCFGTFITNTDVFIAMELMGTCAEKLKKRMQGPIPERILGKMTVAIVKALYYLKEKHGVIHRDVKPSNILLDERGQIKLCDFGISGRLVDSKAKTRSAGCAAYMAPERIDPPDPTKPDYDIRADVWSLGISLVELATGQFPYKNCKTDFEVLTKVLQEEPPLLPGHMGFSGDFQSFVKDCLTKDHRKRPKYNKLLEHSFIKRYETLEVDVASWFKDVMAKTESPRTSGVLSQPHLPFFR
Description: as §1, §2, §3, §4, §5, §6, §7

T2 sequence (P15056 whole entry): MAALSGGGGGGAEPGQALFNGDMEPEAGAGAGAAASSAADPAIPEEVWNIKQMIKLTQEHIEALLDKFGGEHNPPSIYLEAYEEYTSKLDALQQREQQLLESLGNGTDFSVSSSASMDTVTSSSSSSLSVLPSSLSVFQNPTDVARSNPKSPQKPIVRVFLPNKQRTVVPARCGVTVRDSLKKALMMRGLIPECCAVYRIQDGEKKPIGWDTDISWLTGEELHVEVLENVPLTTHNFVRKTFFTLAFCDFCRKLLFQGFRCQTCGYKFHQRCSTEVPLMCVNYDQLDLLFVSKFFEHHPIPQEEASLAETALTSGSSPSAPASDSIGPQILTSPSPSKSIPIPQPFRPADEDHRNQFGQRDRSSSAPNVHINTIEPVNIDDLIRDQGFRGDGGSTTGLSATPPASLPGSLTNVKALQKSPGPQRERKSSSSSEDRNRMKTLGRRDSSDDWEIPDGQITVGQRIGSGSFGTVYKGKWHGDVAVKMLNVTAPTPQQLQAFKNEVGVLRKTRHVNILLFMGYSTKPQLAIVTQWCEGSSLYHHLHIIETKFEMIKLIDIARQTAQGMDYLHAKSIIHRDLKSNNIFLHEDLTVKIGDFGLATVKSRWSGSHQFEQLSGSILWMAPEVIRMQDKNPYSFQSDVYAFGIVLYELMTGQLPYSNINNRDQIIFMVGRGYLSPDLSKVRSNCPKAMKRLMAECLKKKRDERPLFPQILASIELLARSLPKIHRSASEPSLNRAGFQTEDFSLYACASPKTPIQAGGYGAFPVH
T3 sequence (P45983 whole entry): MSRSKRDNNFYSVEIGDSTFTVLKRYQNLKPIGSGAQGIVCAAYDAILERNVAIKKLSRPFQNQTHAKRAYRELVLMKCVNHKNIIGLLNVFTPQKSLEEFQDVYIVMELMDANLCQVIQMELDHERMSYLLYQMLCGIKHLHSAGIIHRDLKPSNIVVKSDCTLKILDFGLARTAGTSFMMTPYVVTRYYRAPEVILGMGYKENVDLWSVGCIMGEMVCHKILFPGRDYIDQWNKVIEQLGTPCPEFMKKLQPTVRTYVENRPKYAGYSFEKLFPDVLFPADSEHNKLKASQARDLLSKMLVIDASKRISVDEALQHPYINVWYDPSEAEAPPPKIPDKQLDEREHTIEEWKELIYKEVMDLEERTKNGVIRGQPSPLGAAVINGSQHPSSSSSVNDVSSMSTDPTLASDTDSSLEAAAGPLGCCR

SMILES | IC50 (MKK4) | Selectivity BRaf, IC50(off-target)/IC50(MKK4) (BRaf) | Selectivity JNK1, IC50(off-target)/IC50(MKK4) (JNK1) | Selectivity MKK7, IC50(off-target)/IC50(MKK4) (MKK7)
CCCS(=O)(=O)Nc1c(F)ccc(C(=O)c2c[nH]c3ncc(-c4ccc(C(=O)NOCCO)cc4)cc23)c1F [Example 3, 4-(3-(2,4-difluoro-3-(propylsulfonamido)benzoyl)-1H-pyrrolo[2,3-b]pyridin-5-yl)-N-(2-hydroxyethoxy)benzamide] | < 100 nM | ++ (100 ≥ IC50(off-target)/IC50(MKK4) > 10) | ++ (100 ≥ IC50(off-target)/IC50(MKK4) > 10) | +++ (IC50(off-target)/IC50(MKK4) > 100)
CCCS(=O)(=O)Nc1c(F)ccc(C(=O)c2c[nH]c3ncc(-c4ccc(P(C)(C)=O)cc4)cc23)c1F [Example 4] | < 100 nM | ++ (100 ≥ IC50(off-target)/IC50(MKK4) > 10) | ++ (100 ≥ IC50(off-target)/IC50(MKK4) > 10) | +++ (IC50(off-target)/IC50(MKK4) > 100)
CCCS(=O)(=O)Nc1c(F)ccc(C(=O)c2c[nH]c3ncc(-c4cnc(C5CCC5)nc4)cc23)c1F [Example 5] | 100 to 1000 nM | +++ (IC50(off-target)/IC50(MKK4) > 100) | +++ (IC50(off-target)/IC50(MKK4) > 100) | +++ (IC50(off-target)/IC50(MKK4) > 100)
CCCS(=O)(=O)Nc1c(F)ccc(C(=O)c2c[nH]c3ncc(-c4cnc(C5CCCC5)nc4)cc23)c1F [Example 6] | 1000 to 10000 nM | +++ (IC50(off-target)/IC50(MKK4) > 100) | ++ (100 ≥ IC50(off-target)/IC50(MKK4) > 10) | +++ (IC50(off-target)/IC50(MKK4) > 100)
CCCS(=O)(=O)Nc1c(F)cc(F)c(C(=O)c2c[nH]c3ncc(-c4cnc(C5CC5)nc4)cc23)c1F [Example 7] | < 100 nM | +++ (IC50(off-target)/IC50(MKK4) > 100) | +++ (IC50(off-target)/IC50(MKK4) > 100) | +++ (IC50(off-target)/IC50(MKK4) > 100)
CCCS(=O)(=O)Nc1c(F)ccc(C(=O)c2c[nH]c3ncc(-c4cnc(OC)nc4C)cc23)c1F [Example 8] | < 100 nM | ++ (100 ≥ IC50(off-target)/IC50(MKK4) > 10) | + (10 ≥ IC50(off-target)/IC50(MKK4) > 3) | +++ (IC50(off-target)/IC50(MKK4) > 100)
CCCS(=O)(=O)Nc1c(F)ccc(C(=O)c2c[nH]c3ncc(-c4cncnc4C)cc23)c1F [Example 9] | < 100 nM | +++ (IC50(off-target)/IC50(MKK4) > 100) | ++ (100 ≥ IC50(off-target)/IC50(MKK4) > 10) | +++ (IC50(off-target)/IC50(MKK4) > 100)
CCCS(=O)(=O)Nc1c(F)ccc(C(=O)c2c[nH]c3ncc(-c4cnc(C)nc4C)cc23)c1F [Example 10] | < 100 nM | +++ (IC50(off-target)/IC50(MKK4) > 100) | +++ (IC50(off-target)/IC50(MKK4) > 100) | +++ (IC50(off-target)/IC50(MKK4) > 100)
CCCS(=O)(=O)Nc1c(F)ccc(C(=O)c2c[nH]c3ncc(-c4cnc(C5CC5)nc4C)cc23)c1F [Example 11] | < 100 nM | +++ (IC50(off-target)/IC50(MKK4) > 100) | +++ (IC50(off-target)/IC50(MKK4) > 100) | +++ (IC50(off-target)/IC50(MKK4) > 100)
CCCS(=O)(=O)Nc1c(F)ccc(C(=O)c2c[nH]c3ncc(-c4cnc(C5CC5)nc4SC)cc23)c1F [Example 12] | 100 to 1000 nM | ++ (100 ≥ IC50(off-target)/IC50(MKK4) > 10) | ++ (100 ≥ IC50(off-target)/IC50(MKK4) > 10) | +++ (IC50(off-target)/IC50(MKK4) > 100)
CCCS(=O)(=O)Nc1c(F)ccc(C(=O)c2c[nH]c3ncc(-c4cnc(OCC(C)(C)C)nc4)cc23)c1F [Example 13] | > 10000 nM | + (10 ≥ IC50(off-target)/IC50(MKK4) > 3) | + (10 ≥ IC50(off-target)/IC50(MKK4) > 3) | + (10 ≥ IC50(off-target)/IC50(MKK4) > 3)
O=C(c1c(F)cc(F)c(NS(=O)(=O)Cc2ccccc2)c1F)c1c[nH]c2ncc(-c3cnc(C4CC4)nc3)cc12 [Example 14] | < 100 nM | ++ (100 ≥ IC50(off-target)/IC50(MKK4) > 10) | ++ (100 ≥ IC50(off-target)/IC50(MKK4) > 10) | +++ (IC50(off-target)/IC50(MKK4) > 100)
